Laboratory results published in PubChem BioAssay (NCI).
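Where inhibition never reached the appropriate level, the endpoint shown equals the highest concentration tested. Otherwise, values were interpolated linearly from a five-concentration, 48-hour dose response in 96-well plates. At the GI50, growth is halved. Definition used: TGI = concentration required for complete inhibition of growth.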

Tests used:
Experiment in all cases: NCI anticancer screen, dose series, 48 h
ACHN renal = system: ACHN renal
HCC-2998 colon = system: HCC-2998 colon
OVCAR-5 ovarian = system: OVCAR-5 ovarian
NCI-H226 lung = system: NCI-H226 lung
U251 CNS = system: U251 CNS
HT29 colon = system: HT29 colon
IGROV1 ovarian = system: IGROV1 ovarian
MALME-3M melanoma = system: MALME-3M melanoma
MDA-MB-231 breast = system: MDA-MB-231 breast
HS 578T breast = system: HS 578T breast
M14 melanoma = system: M14 melanoma
NCI-H23 lung = system: NCI-H23 lung
HOP-92 NSCLC = system: HOP-92 NSCLC
CAKI-1 renal = system: CAKI-1 renal
HCT-116 colon = system: HCT-116 colon
T-47D breast = system: T-47D breast
UACC-257 melanoma = system: UACC-257 melanoma
NCI-H522 lung = system: NCI-H522 lung
SK-MEL-2 melanoma = system: SK-MEL-2 melanoma
NCI/ADR-RES ovarian = system: NCI/ADR-RES ovarian
UO-31 renal = system: UO-31 renal
786-0 renal = system: 786-0 renal
SK-OV-3 ovarian = system: SK-OV-3 ovarian
PC-3 prostate = system: PC-3 prostate
LOX IMVI melanoma = system: LOX IMVI melanoma
MCF7 breast = system: MCF7 breast
NCI-H460 lung = system: NCI-H460 lung
TK-10 renal = system: TK-10 renal
HL-60(TB) leukemia = system: HL-60(TB) leukemia
HCT-15 colon = system: HCT-15 colon
SR leukemia = system: SR leukemia
SW-620 colon = system: SW-620 colon
SF-295 CNS = system: SF-295 CNS
SNB-75 CNS = system: SNB-75 CNS
A549 NSCLC = system: A549 NSCLC
SF-268 CNS = system: SF-268 CNS
CCRF-CEM leukemia = system: CCRF-CEM leukemia
SNB-19 CNS = system: SNB-19 CNS
RXF 393 renal = system: RXF 393 renal
SK-MEL-5 melanoma = system: SK-MEL-5 melanoma
A498 renal = system: A498 renal
SK-MEL-28 melanoma = system: SK-MEL-28 melanoma
RPMI-8226 leukemia = system: RPMI-8226 leukemia
KM12 colon = system: KM12 colon
DU-145 prostate = system: DU-145 prostate
BT-549 breast = system: BT-549 breast
SN12C renal = system: SN12C renal
MDA-MB-435 = system: MDA-MB-435
UACC-62 melanoma = system: UACC-62 melanoma
OVCAR-8 ovarian = system: OVCAR-8 ovarian
EKVX NSCLC = system: EKVX NSCLC
SF-539 CNS = system: SF-539 CNS
MOLT-4 leukemia = system: MOLT-4 leukemia
OVCAR-4 ovarian = system: OVCAR-4 ovarian
K-562 leukemia = system: K-562 leukemia
HOP-62 NSCLC = system: HOP-62 NSCLC

COc1ccc2c(c1)C=CC1(O2)Oc2ccc(OC)cc2C=C1C (stereo not given)
GI50 (ACHN renal): 673 nM
TGI (ACHN renal): > 54500 nM
GI50 (HCC-2998 colon): 1350 nM
TGI (HCC-2998 colon): 7360 nM
GI50 (OVCAR-5 ovarian): 1760 nM
TGI (OVCAR-5 ovarian): > 100000 nM
GI50 (NCI-H226 lung): 4410 nM
TGI (NCI-H226 lung): > 65600 nM
GI50 (U251 CNS): 456 nM
TGI (U251 CNS): 7860 nM
GI50 (HT29 colon): 345 nM
TGI (HT29 colon): 1620 nM
GI50 (IGROV1 ovarian): 704 nM
TGI (IGROV1 ovarian): > 100000 nM
GI50 (MALME-3M melanoma): 33000 nM
TGI (MALME-3M melanoma): > 100000 nM
GI50 (MDA-MB-231 breast): 1160 nM
TGI (MDA-MB-231 breast): > 100000 nM
GI50 (HS 578T breast): 348 nM
TGI (HS 578T breast): > 100000 nM
GI50 (M14 melanoma): 402 nM
GI50 (NCI-H23 lung): 1370 nM
TGI (NCI-H23 lung): > 100000 nM
GI50 (HOP-92 NSCLC): 189 nM
TGI (HOP-92 NSCLC): 930 nM
GI50 (CAKI-1 renal): 632 nM
TGI (CAKI-1 renal): > 100000 nM
GI50 (HCT-116 colon): 509 nM
TGI (HCT-116 colon): > 24200 nM
GI50 (T-47D breast): 2030 nM
TGI (T-47D breast): > 65200 nM
GI50 (UACC-257 melanoma): 820 nM
TGI (UACC-257 melanoma): > 48900 nM
GI50 (NCI-H522 lung): 303 nM
TGI (NCI-H522 lung): 24100 nM
GI50 (SK-MEL-2 melanoma): 392 nM
TGI (SK-MEL-2 melanoma): 54000 nM
GI50 (NCI/ADR-RES ovarian): 397 nM
TGI (NCI/ADR-RES ovarian): > 100000 nM
GI50 (UO-31 renal): 1310 nM
TGI (UO-31 renal): > 46900 nM
GI50 (786-0 renal): 742 nM
TGI (786-0 renal): > 36200 nM
GI50 (SK-OV-3 ovarian): 538 nM
TGI (SK-OV-3 ovarian): > 100000 nM
GI50 (PC-3 prostate): 461 nM
TGI (PC-3 prostate): > 41900 nM
GI50 (LOX IMVI melanoma): 647 nM
TGI (LOX IMVI melanoma): 8520 nM
GI50 (MCF7 breast): 652 nM
TGI (MCF7 breast): > 100000 nM
GI50 (NCI-H460 lung): 422 nM
TGI (NCI-H460 lung): 2050 nM
GI50 (TK-10 renal): 7810 nM
TGI (TK-10 renal): > 100000 nM
GI50 (HL-60(TB) leukemia): 288 nM
GI50 (HCT-15 colon): 453 nM
TGI (HCT-15 colon): 31400 nM
GI50 (SR leukemia): 335 nM
TGI (SR leukemia): 22700 nM
GI50 (SW-620 colon): 380 nM
TGI (SW-620 colon): 16700 nM
GI50 (SF-295 CNS): 384 nM
TGI (SF-295 CNS): > 100000 nM
GI50 (SNB-75 CNS): 273 nM
TGI (SNB-75 CNS): > 100000 nM
GI50 (A549 NSCLC): 1000 nM
TGI (A549 NSCLC): > 100000 nM
GI50 (SF-268 CNS): 1810 nM
TGI (SF-268 CNS): > 100000 nM
GI50 (CCRF-CEM leukemia): 366 nM
TGI (CCRF-CEM leukemia): 4080 nM
GI50 (SNB-19 CNS): 598 nM
TGI (SNB-19 CNS): > 100000 nM
GI50 (RXF 393 renal): 432 nM
TGI (RXF 393 renal): 17700 nM
GI50 (SK-MEL-5 melanoma): 695 nM
TGI (SK-MEL-5 melanoma): 13500 nM
GI50 (A498 renal): 251 nM
TGI (A498 renal): 1060 nM
GI50 (SK-MEL-28 melanoma): 4800 nM
TGI (SK-MEL-28 melanoma): > 81900 nM
GI50 (RPMI-8226 leukemia): 475 nM
TGI (RPMI-8226 leukemia): > 25400 nM
GI50 (KM12 colon): 506 nM
TGI (KM12 colon): > 100000 nM
GI50 (DU-145 prostate): 1130 nM
TGI (DU-145 prostate): > 100000 nM
GI50 (BT-549 breast): 332 nM
TGI (BT-549 breast): 1690 nM
GI50 (SN12C renal): 800 nM
TGI (SN12C renal): > 55900 nM
GI50 (MDA-MB-435): 222 nM
TGI (MDA-MB-435): 545 nM
GI50 (UACC-62 melanoma): 390 nM
TGI (UACC-62 melanoma): > 32900 nM
GI50 (OVCAR-8 ovarian): 944 nM
TGI (OVCAR-8 ovarian): 4560 nM
GI50 (EKVX NSCLC): 1820 nM
TGI (EKVX NSCLC): > 100000 nM
GI50 (SF-539 CNS): 396 nM
TGI (SF-539 CNS): 3020 nM
GI50 (MOLT-4 leukemia): 447 nM
TGI (MOLT-4 leukemia): > 71600 nM
GI50 (OVCAR-4 ovarian): 28800 nM
TGI (OVCAR-4 ovarian): > 100000 nM
GI50 (K-562 leukemia): 358 nM
TGI (K-562 leukemia): > 100000 nM
GI50 (HOP-62 NSCLC): 615 nM
TGI (HOP-62 NSCLC): > 59200 nM
